Marks after values point to notes of the source that are not given here.
Experiments:
[1] = system: Dog Serum Bile Acids; experiment: Time to onset of activity of LUM001 on postprandial serum bile acids in beagle dogs; format: in vivo; details: for Serum Bile Acid, Mean: dogs n = 6, fed at 0 min, dosed at 60 min
Procedure: (§1) LUM001 was dissolved in water at concentrations that required the administration of 0.2 ml/kg of solution. Solutions were placed into gelatin capsules, Torpac Inc., size 13 Batch 594, East Hanover N.J., and administered orally.
(§2) Male beagle dogs were obtained from Covance Research Products, Cumberland Va. or Marshall Farms USA, Inc., North Rose N.Y. A total of 20 dogs, 1 to 5 years old, 6.8 to 15.6 kg body weight, were used in these experiments. The dogs were conditioned to a 12 hour light/dark cycle and maintained on a feeding restriction of 1 hour per day access to food (Richman Standard Certified Canine Diet #5007, PMI Nutrition, Inc., St Louis Mo.) from 7 to 8 AM. They were trained to eat a special meal promptly within 20 minutes when presented (1 can. 397 g, Evanger's 100% Beef for Dogs, Evanger's Dog and Cat Food Co., Inc., Wheeling Ill., mixed with 50 g of sharp cheddar cheese.).
(§3) SBA was measured by an enzymatic assay. SBA values are expressed as μg of total bile acids/ml of serum.
To estimate the details of this plateau, 6 dogs were given a test meal and blood samples for SBA measurement were collected at −30, 0, 30, 60, 65, 70, 80, 90, 120, 180, 240, 360, 480, 720, 1410 and 1440 minutes from the time of feeding. Any remaining food was removed 20 min after it was first presented to the dogs. To establish a method for extending the elevated plateau of SBA, 6 dogs were given the meal at 0 hr and an additional ½ size meal again 4 hr after their first meal. Blood samples were taken at 0, 1, 2, 3, 4, 4.5, 6, 7 and 8 hr. The curves for SBA level vs time obtained in these experiments were used as references for determining blood sampling times in experiments with LUM001. Wherever possible, experimental design permitting, in experiments with test compound, each dog served as its own simultaneous control, and the mean 1 hr SBA value served as the reference to which all other mean values were compared.
LUM001 was administered at 0, 0.01, 0.05, 0.2 and 1 mg/kg, p.o. to dogs, n=6, 1 hr after feeding the standard experimental meal. Blood samples for SBA measurement were taken at −30, 0, 30, 60, 65, 70, 80, 90, 120 and 180 minutes from the time of feeding. Each dog served as its own control, and mean SBA levels were compared to the mean SBA level at 60 minutes.

[2] = system: Dog Serum Bile Acids; experiment: Duration of action of LUM001 on dog serum bile acids, Method 1: two meals for extended SBA elevation; format: in vivo, beagle dogs; details: for Serum Bile Acid, Mean: dogs n = 6, full meal at 0 hr, dosed at 1 hr, one-half meal at 4 hr
Procedure: as §1, §2, §3
In dogs a single experimental meal produces a postprandial rise in SBA that is elevated to a peak at 1 hour after feeding and constant for an additional 3 hours. Previous experiments (2) indicate that LUM001 remains active for more than 4.5 hours. To measure the duration of action of an ASBT inhibitor using postprandial SBA levels requires that in the control situation the SBA levels remain elevated and constant for the entire period of compound action, or that the compound be administered long before the postprandial rise occurs, and remain active in the empty digestive system for long periods before feeding. Accordingly, two alternative methods were used to provide a window of constant SBA elevation that could be used to measure the duration of action of ASBT inhibitors.
LUM001 was administered at 0.05 and 0.2 mg/kg, p.o. to 6 dogs 1 hr after feeding them a meal. At 4 hours after the meal was offered, a second meal of ½ the size of the first meal was offered. It too was consumed as promptly and thoroughly as the first meal, and provided an extended, constant SBA plateau. Blood samples for SBA measurement were taken at 0, 1, 1.5, 2, 4, 4.5, 5, 5.5, 6, 6.5, 7, 7.5 and 8 hours from the time of offering the first meal. Mean SBA levels were compared to the mean SBA level at 1 hour, each dog serving as its own control.

[3] = Pediatric multiple-dose study of LUM-001: tolerability; format: in vivo, human; details: 2 weeks daily up to 5 mg q.d., 39 treated subjects aged 10-17
Excerpt: (39 treated subjects aged 10-17).

[4] = dogs, 0.2 mg/kg orally 1 hour after feeding
[5] = dogs, 1 mg/kg orally 1 hour after feeding

CCCCC1(CCCC)CS(=O)(=O)c2ccc(N(C)C)cc2[C@@H](c2ccc(OCc3ccc(C[N+]45CCN(CC4)CC5)cc3)cc2)[C@H]1O [LUM001]
Threshold dose for significant SBA lowering ([1]; dog SBA model, oral): 0.05 mg/kg
Serum Bile Acid, Mean ([1]; 0.01 mg/kg p.o., time 0 min): 1.4 µg/mL
Serum Bile Acid, Mean ([1]; 0.01 mg/kg p.o., time 30 min): 5.8 µg/mL
Serum Bile Acid, Mean ([1]; 0.01 mg/kg p.o., time 60 min): 14.6 µg/mL
Serum Bile Acid, Mean ([1]; 0.01 mg/kg p.o., time 65 min): 13.9 µg/mL
Serum Bile Acid, Mean ([1]; 0.01 mg/kg p.o., time 70 min): 14.1 µg/mL
Serum Bile Acid, Mean ([1]; 0.01 mg/kg p.o., time 80 min): 12.8 µg/mL
Serum Bile Acid, Mean ([1]; 0.01 mg/kg p.o., time 90 min): 11.0 µg/mL
Serum Bile Acid, Mean ([1]; 0.01 mg/kg p.o., time 120 min): 10.6 µg/mL
Serum Bile Acid, Mean ([1]; 0.01 mg/kg p.o., time 180 min): 11.0 µg/mL
Serum Bile Acid, Mean ([1]; 0.01 mg/kg p.o., time −30 min): 1.5 µg/mL
Serum Bile Acid, Mean ([1]; 0.05 mg/kg p.o., time 0 min): 2.1 µg/mL
Serum Bile Acid, Mean ([1]; 0.05 mg/kg p.o., time 30 min): 6.8 µg/mL
Serum Bile Acid, Mean ([1]; 0.05 mg/kg p.o., time 60 min): 10.4 µg/mL
Serum Bile Acid, Mean ([1]; 0.05 mg/kg p.o., time 65 min): 12.2 µg/mL
Serum Bile Acid, Mean ([1]; 0.05 mg/kg p.o., time 70 min): 12.0 µg/mL
Serum Bile Acid, Mean ([1]; 0.05 mg/kg p.o., time 80 min): 10.0 µg/mL
Serum Bile Acid, Mean ([1]; 0.05 mg/kg p.o., time 90 min): 8.8 µg/mL
Serum Bile Acid, Mean ([1]; 0.05 mg/kg p.o., time 120 min): 6.5* μg/ml
Serum Bile Acid, Mean ([1]; 0.05 mg/kg p.o., time 180 min): 6.5* μg/ml
Serum Bile Acid, Mean ([1]; 0.05 mg/kg p.o., time −30 min): 1.4 µg/mL
Serum Bile Acid, Mean ([1]; 0.2 mg/kg p.o., time 0 min): 1.9 µg/mL
Serum Bile Acid, Mean ([1]; 0.2 mg/kg p.o., time 30 min): 9.1 µg/mL
Serum Bile Acid, Mean ([1]; 0.2 mg/kg p.o., time 60 min): 19.1 µg/mL
Serum Bile Acid, Mean ([1]; 0.2 mg/kg p.o., time 65 min): 14.9 µg/mL
Serum Bile Acid, Mean ([1]; 0.2 mg/kg p.o., time 70 min): 16.7 µg/mL
Serum Bile Acid, Mean ([1]; 0.2 mg/kg p.o., time 80 min): 14.3 µg/mL
Serum Bile Acid, Mean ([1]; 0.2 mg/kg p.o., time 90 min): 9.8* μg/ml
Serum Bile Acid, Mean ([1]; 0.2 mg/kg p.o., time 120 min): 4.8* μg/ml
Serum Bile Acid, Mean ([1]; 0.2 mg/kg p.o., time 180 min): 4.0 µg/mL
Serum Bile Acid, Mean ([1]; 0.2 mg/kg p.o., time −30 min): 2.4 µg/mL
Serum Bile Acid, Mean ([1]; 1 mg/kg p.o., time 0 min): 2.6 µg/mL
Serum Bile Acid, Mean ([1]; 1 mg/kg p.o., time 30 min): 7.6 µg/mL
Serum Bile Acid, Mean ([1]; 1 mg/kg p.o., time 60 min): 13.8 µg/mL
Serum Bile Acid, Mean ([1]; 1 mg/kg p.o., time 65 min): 13.5 µg/mL
Serum Bile Acid, Mean ([1]; 1 mg/kg p.o., time 70 min): 15.4 µg/mL
Serum Bile Acid, Mean ([1]; 1 mg/kg p.o., time 80 min): 12.1 µg/mL
Serum Bile Acid, Mean ([1]; 1 mg/kg p.o., time 90 min): 7.4* μg/ml
Serum Bile Acid, Mean ([1]; 1 mg/kg p.o., time 120 min): 3.0* μg/ml
Serum Bile Acid, Mean ([1]; 1 mg/kg p.o., time 180 min): 2.6* μg/ml
Serum Bile Acid, Mean ([1]; 1 mg/kg p.o., time −30 min): 2.1 µg/mL
Time after dosing to significantly lowered serum bile acid levels [1, 4]: ≤ 30 min
Effect of increasing the dose above the ED50 level on onset time to significant SBA lowering [1, 5]: did not shorten the onset time
Time after dosing for which maximal SBA suppression was sustained [1, 5]: 2 h
Serum Bile Acid, Mean ([2]; 0.05 mg/kg p.o., time 0 hr): 1.4 µg/mL
Serum Bile Acid, Mean ([2]; 0.05 mg/kg p.o., time 1 hr): 9.2 µg/mL
Serum Bile Acid, Mean ([2]; 0.05 mg/kg p.o., time 1.5 hr): 9.6 µg/mL
Serum Bile Acid, Mean ([2]; 0.05 mg/kg p.o., time 2 hr): 6.7 µg/mL
Serum Bile Acid, Mean ([2]; 0.05 mg/kg p.o., time 4 hr): 5.1* μg/ml
Serum Bile Acid, Mean ([2]; 0.05 mg/kg p.o., time 4.5 hr): 6.4 µg/mL
Serum Bile Acid, Mean ([2]; 0.05 mg/kg p.o., time 5 hr): 7.0 µg/mL
Serum Bile Acid, Mean ([2]; 0.05 mg/kg p.o., time 6 hr): 7.0 µg/mL
Serum Bile Acid, Mean ([2]; 0.05 mg/kg p.o., time 7 hr): 7.4 µg/mL
Serum Bile Acid, Mean ([2]; 0.05 mg/kg p.o., time 8 hr): 6.5 µg/mL
Serum Bile Acid, Mean ([2]; 0.2 mg/kg p.o., time 0 hr): 1.3 µg/mL
Serum Bile Acid, Mean ([2]; 0.2 mg/kg p.o., time 1 hr): 11.1 µg/mL
Serum Bile Acid, Mean ([2]; 0.2 mg/kg p.o., time 1.5 hr): 9.1 µg/mL
Serum Bile Acid, Mean ([2]; 0.2 mg/kg p.o., time 2 hr): 3.8* μg/ml
Serum Bile Acid, Mean ([2]; 0.2 mg/kg p.o., time 4 hr): 2.5* μg/ml
Serum Bile Acid, Mean ([2]; 0.2 mg/kg p.o., time 4.5 hr): 3.3* μg/ml
Serum Bile Acid, Mean ([2]; 0.2 mg/kg p.o., time 5 hr): 3.1* μg/ml
Serum Bile Acid, Mean ([2]; 0.2 mg/kg p.o., time 6 hr): 3.6* μg/ml
Serum Bile Acid, Mean ([2]; 0.2 mg/kg p.o., time 7 hr): 3.9* μg/ml
Serum Bile Acid, Mean ([2]; 0.2 mg/kg p.o., time 8 hr): 5.8* μg/ml
Time after dosing beyond which the significant SBA decrease was not sustained ([2]; dogs, 0.05 mg/kg orally 1 hour after feeding): ≤ 3 h
Time serum bile acid levels remained significantly lowered [2, 4]: at least 6 hours
Tolerability [3]: well-tolerated
